Measurements published in patent US9352015B2, “Antimicrobial peptides” (priority 2009, dated 2016).
Converted amounts (≈) assume the structure as drawn. “Also recorded” adds a separate entry of the source. Where two headings read alike, the source gives them in different places. Where a SMILES comes first, the peptide text is derived from it.

How the values were obtained:
[1] = RP-HPLC temperature profiling (peptide self-association parameter PA); assay type: physicochemical; conditions: enantiomer pairs of V681 analogs, 5° C. to 80° C., relative to peptide C
How it was run: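 Peptide retention was profiled by RP-HPLC at pH 2 from 5 °C to 80 °C in 3 °C increments, using a linear gradient of 0.5% acetonitrile/min. The monomeric random-coil control peptide C profile was subtracted. PA is the maximum change in retention time relative to control C; higher PA means greater self-association.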

human erythrocytes [2] = conditions: WO 2006/065977, cited from earlier work
human erythrocytes [3] = assay: Hemolytic activity against human erythrocytes (HC50 / MHC, microtiter dilution); assay type: cell-based
Experimental: Hemoglobin release was determined spectrophotometrically at 570 nm. The hemolytic activity was determined as the peptide concentration that caused 50% hemolysis of erythrocytes after 18 h (HC50). […] HC50 was determined by a plot of peptide concentration versus percent lysis.

Gram-negative bacteria = assay: MIC against Gram-negative bacteria (V681 analog studies); assay type: cell-based
Experimental: Minimal inhibitory concentrations (MICs) are determined using a standard microtiter dilution method, with 3 sets of determinations, in LB (Luria-Bertani) no-salt medium (10 g of tryptone and 5 g of yeast extract per liter). In some cases, Mueller Hinton (MH) medium or Brain Heart Infusion (BHI) medium is used.
Briefly, cells were grown overnight at 37° C. in LB and diluted in the same medium. Serial dilutions of the peptides are added to the microtiter plates in a volume of 100 μl followed by 10 μl of bacteria to give a final inoculum of 5×10^5 colony-forming units/ml. Plates are incubated at 37° C. for 24 hours and MICs determined as the lowest peptide concentration that inhibited growth. Alternatively, minimal inhibitory concentrations are determined using a standard microtiter dilution method in a Mueller-Hinton (MH) medium. Briefly, cells are grown overnight at 37° C. in MH broth and diluted in the same medium. In some cases, serial dilutions of the peptides are added to the microtiter plates in a volume of 100 μl followed by 10 μl of bacteria to give a final inoculum of 1×10^5 colony-forming units/ml. Plates are incubated at 37° C. for 24 hours and MICs are determined as the lowest peptide concentration that inhibited growth.

[4] = RP-HPLC retention as measure of overall peptide hydrophobicity; assay type: physicochemical; conditions: 80° C.
Experimental: Crude and purified peptides were analyzed on an Agilent 1100 series liquid chromatograph (Little Falls, Del.). Runs were performed on a Zorbax 300 SB-C8 column (150×2.1 mm I.D.; 5 μm particle size, 300 Å pore size) from Agilent Technologies using linear AB gradient (1% acetonitrile/min) and a flow rate of 0.25 ml/min, where eluant A was 0.2% aqueous TFA, pH 2 and eluant B was 0.2% TFA in acetonitrile.

human erythrocytes [5] = assay: Hemolytic activity against human erythrocytes (HC50 / MHC, microtiter dilution); assay type: cell-based; conditions: V681 analog studies
[6] = Circular dichroism spectroscopy (helical structure); assay type: physicochemical
[7] = 50% TFE in 0.05% TFA; cited from earlier work

## CC[C@H](C)[C@H](NC(=O)[C@H](C)NC(=O)[C@H](CCCCN)NC(=O)[C@H](CC(C)C)NC(=O)[C@H](C)NC(=O)[C@@H](NC(=O)[C@H](Cc1c[nH]cn1)NC(=O)[C@H](CC(C)C)NC(=O)[C@@H](NC(=O)[C@@H](NC(=O)[C@H](CCCCN)NC(=O)[C@@H](C)NC(=O)[C@H](C)NC(=O)[C@H](CO)NC(=O)[C@H](CCCCN)NC(=O)[C@H](Cc1ccccc1)NC(=O)[C@@H](NC(=O)[C@H](CCCCN)NC(=O)[C@H](CC(C)C)NC(=O)[C@H](Cc1ccccc1)NC(=O)[C@H](CO)NC(=O)[C@H](CCCCN)NC(=O)[C@H](Cc1c[nH]c2ccccc12)NC(=O)[C@H](CCCCN)NC(C)=O)[C@@H](C)O)[C@@H](C)O)C(C)C)[C@@H](C)O)C(=O)N[C@@H](CO)C(=O)N[C@@H](CO)C(N)=O [NAD] (HELM PEPTIDE1{[ac].K.W.K.S.F.L.K.T.F.K.S.A.[dA].K.T.V.L.H.T.A.L.K.A.I.S.S.[am]}$$$$V2.0)
[1]
  PA (peptide self-association parameter): 4.1
Human erythrocytes [2]; after 12 hours
  Hemolytic activity: 250 µg/mL
Human erythrocytes [2]; after 18 hours
  Hemolytic activity: 31.3 µg/mL

## CC[C@H](C)[C@H](NC(=O)[C@H](C)NC(=O)[C@H](CCCCN)NC(=O)[C@H](CC(C)C)NC(=O)[C@H](C)NC(=O)[C@@H](NC(=O)[C@H](Cc1cnc[nH]1)NC(=O)[C@H](CC(C)C)NC(=O)[C@@H](NC(=O)[C@@H](NC(=O)[C@H](CCCCN)NC(=O)[C@H](CCCCN)NC(=O)[C@H](C)NC(=O)[C@H](CO)NC(=O)[C@H](CCCCN)NC(=O)[C@H](Cc1ccccc1)NC(=O)[C@@H](NC(=O)[C@H](CCCCN)NC(=O)[C@H](CC(C)C)NC(=O)[C@H](Cc1ccccc1)NC(=O)[C@H](CO)NC(=O)[C@H](CCCCN)NC(=O)[C@H](Cc1c[nH]c2ccccc12)NC(=O)[C@H](CCCCN)NC(C)=O)[C@@H](C)O)[C@@H](C)O)C(C)C)[C@@H](C)O)C(=O)N[C@@H](CO)C(=O)N[C@@H](CO)C(N)=O [NKL]
Human erythrocytes [3]
  Fold decrease in hemolytic activity compared to V681: > 32 fold
Gram-negative bacteria
  MIC against Gram-negative bacteria: 3.1 µg/mL (≈ 1.04 µM)
[4]; non-polar face substitution
  Change in hydrophobicity (retention time) relative to NVL (V681): -12.61 min
[1]
  PA (peptide self-association parameter): 2.1
Human erythrocytes [5]
  Hemolytic activity, minimal hemolytic concentration (MHC): undetectable level; also recorded: non-hemolytic; also recorded: no detectable hemolytic activity; also recorded: no measurable activity

## CC[C@H](C)[C@H](NC(=O)[C@H](C)NC(=O)[C@H](CCCCN)NC(=O)[C@H](CC(C)C)NC(=O)[C@H](C)NC(=O)[C@@H](NC(=O)[C@H](Cc1c[nH]cn1)NC(=O)[C@H](CC(C)C)NC(=O)[C@@H](NC(=O)[C@@H](NC(=O)[C@H](CCCCN)NC(=O)[C@H](CC(C)C)NC(=O)[C@H](C)NC(=O)[C@H](CO)NC(=O)[C@H](CCCCN)NC(=O)[C@H](Cc1ccccc1)NC(=O)[C@@H](NC(=O)[C@H](CCCCN)NC(=O)[C@H](CC(C)C)NC(=O)[C@H](Cc1ccccc1)NC(=O)[C@H](CO)NC(=O)[C@H](CCCCN)NC(=O)[C@H](Cc1c[nH]c2ccccc12)NC(=O)[C@H](CCCCN)NC(C)=O)[C@@H](C)O)[C@@H](C)O)C(C)C)[C@@H](C)O)C(=O)N[C@@H](CO)C(=O)N[C@@H](CO)C(N)=O [NLL] (Ac-KWKSFLKTFKSALKTVLHTALKAISS-NH2)
Gram-negative bacteria
  MIC against Gram-negative bacteria: 12.7 µg/mL (≈ 4.27 µM)

## CC[C@H](C)[C@H](NC(=O)[C@H](C)NC(=O)[C@H](CCCCN)NC(=O)[C@H](CC(C)C)NC(=O)[C@H](C)NC(=O)[C@@H](NC(=O)[C@H](Cc1c[nH]cn1)NC(=O)[C@H](CC(C)C)NC(=O)[C@@H](NC(=O)[C@@H](NC(=O)[C@H](CCCCN)NC(=O)[C@@H](NC(=O)[C@H](C)NC(=O)[C@H](CO)NC(=O)[C@H](CCCCN)NC(=O)[C@H](Cc1ccccc1)NC(=O)[C@@H](NC(=O)[C@H](CCCCN)NC(=O)[C@H](CC(C)C)NC(=O)[C@H](Cc1ccccc1)NC(=O)[C@H](CO)NC(=O)[C@H](CCCCN)NC(=O)[C@H](Cc1c[nH]c2ccccc12)NC(=O)[C@H](CCCCN)NC(C)=O)[C@@H](C)O)C(C)C)[C@@H](C)O)C(C)C)[C@@H](C)O)C(=O)N[C@@H](CO)C(=O)N[C@@H](CO)C(N)=O [Peptide V681] (Ac-KWKSFLKTFKSAVKTVLHTALKAISS-NH2)
[4]; polar face substitution
  Change in hydrophobicity (retention time) relative to PVL: -0.35 min
[1]
  PA (peptide self-association parameter): 7.2
[6]; 50% TFE
  [θ]222 molar ellipticity: −27,300
  α-helical content: 94%
[6]; benign conditions
  α-helical content: 45%
[6]; benign conditions (100 mM KCl, 50 mM aq. PO4, pH 7)
  [θ]222 molar ellipticity: −12,900
Human erythrocytes [5]
  Hemolytic activity, minimal hemolytic concentration (MHC): 15.6 µg/mL
[7]
  Transition temperature Tm (50% of α-helical structure denatured): 79.3 °C
